Data: PMC8950868, “Identifying Human PTP1B Enzyme Inhibitors from Marine Natural Products: Perspectives for Developing of Novel Insulin-Mimetic Drugs” (Pharmaceuticals, 2022)

Columns and labels:
Type in all cases: biochemical
[1] = biological target: T1, human recombinant PTP1B (1–302) (Homo sapiens, UniProt P18031); assay: PTP1B enzymatic assay (p-NPP hydrolysis; preliminary screening and IC50); settings: for Effect on PTP1B activity in preliminary screening: 20 µM of each compound, 30 min; for IC50: 2.5 mM p-NPP, pH 7.0, 37 °C, mean ± SD (n = 3), read-out: IC50 values determined on PTP1B
T1 construct: human recombinant PTP1B (1–302)
T1 sequence (P18031 1-302): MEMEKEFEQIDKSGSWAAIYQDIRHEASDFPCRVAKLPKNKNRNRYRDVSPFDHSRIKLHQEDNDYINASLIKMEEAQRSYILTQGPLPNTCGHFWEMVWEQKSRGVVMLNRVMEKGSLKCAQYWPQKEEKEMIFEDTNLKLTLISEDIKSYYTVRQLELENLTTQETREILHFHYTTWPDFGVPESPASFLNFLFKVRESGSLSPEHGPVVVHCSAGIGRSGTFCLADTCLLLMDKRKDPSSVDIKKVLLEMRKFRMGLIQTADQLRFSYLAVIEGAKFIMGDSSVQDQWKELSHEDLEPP
Method: We performed enzymatic assays as previously described. For each assay, an aliquot of human recombinant PTP1B (1–302) was added in the assay buffer (0.075 M β,β-dimethylglutarate pH 7.0 containing 1 mM EDTA, 0.1 mM DTT and a p-nitrophenylphosphate (p-NPP) (Chemcruz, Santa Cruz Biotechnology (Santa Cruz, CA, USA)). The reactions were performed at 37 °C in a final volume of 1 mL. After adequate time (30 min) of incubation, the reactions were stopped adding 2 mL of 0.1 M KOH in each sample. The released amount of p-nitrophenol, product of the reaction, was determined by measuring the absorbance at 400 nm in a 1 cm pathlength cuvette.
The IC50 value of compounds against PTP1B was determined by measuring the hydrolysis rate of the enzyme in the presence of a fixed substrate concentration (2.5 mM p-NPP) and increasing inhibitor concentrations (generally 14–16 different concentrations). Each test was carried out in triplicate. Experimental data were normalized respect to control samples and then fitted using a non-linear fitting software, using the following equation: Vi/V0=Max−Min/1+x/IC50^slope+Min where the Vi/V0 value represents the relative activity calculated in presence of each inhibitor concentration; the maximum and minimum value of the activity are represented by “Max” and “Min”, respectively; “x” is the concentration of the inhibitor; IC50 is the inhibitor concentration able to decrease the enzymatic activity up to 50%; “slope” represents the slope of the curve in the transition zone.
Figure 2 Preliminary screening assay on PTP1B. All assays were started by diluting an aliquot of PTP1B in the assay solution containing substrate alone (control test) or substrate and an aliquot of each compound (20 µM, final concentration). After 30 min, the reactions were stopped by adding a concentrated KOH solution. The enzyme activity was determined by measuring the amount of p-nitrophenol that was released in each sample using a spectrophotometer. Data obtained were normalized respect to control sample. […] Statistical analysis was carried out using one way ANOVA followed by Tukey’s HSD test for pairwise comparisons. Statistics have been drawn on raw data and compare samples to control (Ctr). * p < 0.05; ** p < 0.01.
Figure 3 Determination of the IC50 values with compounds 3, 8a, 8b, 9a and 9b. An aliquot of PTP1B enzyme was diluted in the presence of increasing concentration of the compounds. The activity of PTP1B was determined by measuring the absorbance of the sample at 400 nm, using a spectrophotometer. Data obtained were normalized respect to the control sample and analysed using a non-linear fitting software.

[2] = biological target: T2, PTP1B (Homo sapiens, UniProt P18031); assay: Determination of the mechanism of inhibition on PTP1B (KM, Vmax, Lineweaver-Burk, secondary plots); settings: for α: Ki′ = αKi; for Ki′: from 1/Vmax versus inhibitor concentration (Ki′ = αKi); for Ki: from KM/Vmax versus inhibitor concentration
T2 construct: human recombinant PTP1B (1–302)
T2 sequence (P18031 1-302): T1 sequence (P18031 1-302)
Method: The inhibitory mechanism of tested compounds was determined studying the dependence between the main kinetics parameters (KM and Vmax) and the inhibitors concentrations. Briefly, KM and Vmax values were calculated measuring the hydrolysis rate of PTP1B in the absence/presence of different inhibitor concentrations, while increasing substrate content. Data obtained were fitted using Michaelis-Menten equation and a non-linear fitting software. Then, data were analysed using the double reciprocal plot (Lineweaver-Burk method).
Figure 5 Kinetic characterization of 3 as PTP1B inhibitor. […] Dependence of main kinetic parameters KM (A) and Vmax (B) from the concentration of compound 3. Lineweaver-Burk plot (C). Bars represent the standard deviations of the means from at least three independent measurements (if not present, they are within the symbol’s size). […] E, free enzyme; S, substrate; ES, enzyme-substrate complex; EI, enzyme-inhibitor complex; ESI the enzyme-substrate-inhibitory ternary complex; Ks, dissociation constant of the enzyme-substrate complex; Ki, dissociation constant of EI complex; αKs and αKi, dissociation constant of enzyme-substrate-inhibitor complex (α > 1).
Figure 6 Secondary plots. KM/Vmax (A) and 1/Vmax (B) versus the inhibitor concentration, respectively. The intercept of straight line with the “x” axis in Panel A, represents the Ki value, while the intercept of straight line with the “x” axis in Panel B represents the Ki′ value (Ki′ = αKi).
Figure 7 Kinetic characterization of 8a as PTP1B inhibitor. […] Dependence of KM (A) and Vmax (B) from the inhibitor concentration. Lineweaver-Burk graph (C). Bars represent the standard deviations of the means from at least three independent measurements (if not present, they are within the symbol’s size). Secondary plots: KM/Vmax (D) and 1/Vmax (E) versus the inhibitor concentration, respectively. The intercept of straight line with the “x” axis in Figure D represents the Ki value, while the intercept of straight line with the “x” axis in Figure E represents the Ki′ value (Ki′ = αKi).

[3] = biological target: T2, PTP1B; assay: Dilution (reversibility) assay with PTP1B; settings: 50 µM, 1 h at 37 °C, then diluted 500 fold
Method: A dilution test was carried out to evaluate if the compound behaves as reversible or irreversible inhibitor of PTP1B. Briefly, an aliquot of the enzyme was diluted with different concentration of inhibitor and the samples incubated at 37 °C for 1 h. After this time, an aliquot of these samples was diluted 500 times in the assay buffer containing 2.5 mM p-NPP, to evaluate whether the enzyme is able to recover its activity since the final concentration of inhibitor is now far away from its IC50 value. Control test was carried out diluting the enzyme with an equal volume of deionised water. All tests were performed in triplicate.
Figure 4 Dilution assay. To evaluate the mechanism of action of the compounds, a reversibility assay was carried out. The PTP1B was incubated in the presence of the saturating concentration of each compound (50 µM) for 1 h at 37 °C. Then, an aliquot of enzyme was diluted 500 folds in the assay buffer to evaluate the residual activity of the enzyme. Tests were carried out in triplicate. Data represent the mean value ± SD.

Structure (SMILES) | Effect on PTP1B activity in preliminary screening [1] | IC50 [1] [µM] | Inhibitory mechanism on PTP1B [2] | α [2] | Ki′ [2] [µM] | Ki [2] [µM] | Reversibility of PTP1B inhibition [3]
CCCCC[C@@H](OP(=O)(O)O)[C@@H](O)CC[C@H](CCCC)OC(C)=O (relative stereo) [Compound 8a] | reducing PTP1B activity | 16 ± 2 | mixed type inhibitor | 1.6 ± 0.1 | 5.4 ± 0.2 | 3.3 ± 0.4 | reversible inhibitors
CCCCCCCCCCCCCCC(OP(=O)(O)O)C(O)CCCO (centres unmarked) [Compound 3] | reducing PTP1B activity | 6.7 ± 3.3 | linear mixed-type inhibitor | 1.4 ± 0.2 | 9.4 ± 0.6 | 6.6 ± 0.8 | reversible inhibitors
